Where two headings read alike, the source gives them in different places.
What was measured:
[1] = biological target: T1, Human recombinant PDE2A (hPDE2A) (Homo sapiens, UniProt O00408); experiment: In vitro assay PDE2A (SPA, 3H-cGMP hydrolysis); assay type: biochemical; conditions: for Emax: read-out: hPDE2A Emax
T1 construct: His tag (inferred from metal chelate purification); made in house; host or cells: Sf9 insect cells (baculovirus)

[2] = biological target: T2, Human recombinant PDE3A (hPDE3A) (Homo sapiens, UniProt Q14432); experiment: In vitro assay PDE3A (SPA, 3H-cAMP hydrolysis); assay type: biochemical; conditions: for IC50: hPDE3B pIC50, read-out: pIC50 (converted); for Emax: read-out: hPDE3B Emax, read-out: Emax;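 on all read-outs here: the method names PDE3A and the table heading PDE3B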
T2 construct: purchased Scottish Biomedical; host or cells: Sf9 insect cells
How it was run: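 Radiometric SPA measuring [3H]-cAMP hydrolysis (0.4 μM cAMP, 2.4 μCi/ml) over 60 min at room temperature, in Tris pH 7.8 buffer with MgCl2 and EGTA, 1% DMSO. Enzyme: recombinant human brain PDE3A expressed in Sf9 cells, used as partially purified lysate. Counts compared with enzyme-free blanks and vehicle controls.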

[3] = biological target: T3, Human recombinant PDE10A (hPDE10A) (Homo sapiens, UniProt Q9Y233); experiment: In vitro assay PDE10A, human clone (SPA, 3H-cAMP hydrolysis); assay type: biochemical
T3 construct: His tag (inferred from metal chelate purification); made in house; host or cells: Sf9 insect cells (baculovirus)
How it was run: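 Hydrolysis of 3H-cAMP (60 nM cAMP, 0.008 μCi tracer) proceeded for 60 min at room temperature, with the product detected by SPA bead scintillation counting. The enzyme was hPDE10A from baculovirus-infected Sf9 cells in Tris pH 7.8 buffer with MgCl2 and EGTA, and compounds were at 1% DMSO final. Blanks lacked enzyme.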

[4] = human recombinant PDE2A, 10 μM cGMP substrate, read-out: hPDE2A pIC50 (converted)
[5] = read-out: hPDE2A pIC50 (converted)
[6] = human clone (h), default, read-out: hPDE10A2 Emax
[7] = human clone (h), default, read-out: hPDE10A2 pIC50 (converted)
[8] = human clone by default (no (r) mark), read-out: hPDE10A2 or rPDE10A2 Emax
[9] = human clone by default (no (r) mark), read-out: hPDE10A2 or rPDE10A2 pIC50 (converted)
[10] = hPDE2A pIC50, human recombinant PDE2A, 10 μM cGMP substrate

T2 sequence (Q14432 whole entry): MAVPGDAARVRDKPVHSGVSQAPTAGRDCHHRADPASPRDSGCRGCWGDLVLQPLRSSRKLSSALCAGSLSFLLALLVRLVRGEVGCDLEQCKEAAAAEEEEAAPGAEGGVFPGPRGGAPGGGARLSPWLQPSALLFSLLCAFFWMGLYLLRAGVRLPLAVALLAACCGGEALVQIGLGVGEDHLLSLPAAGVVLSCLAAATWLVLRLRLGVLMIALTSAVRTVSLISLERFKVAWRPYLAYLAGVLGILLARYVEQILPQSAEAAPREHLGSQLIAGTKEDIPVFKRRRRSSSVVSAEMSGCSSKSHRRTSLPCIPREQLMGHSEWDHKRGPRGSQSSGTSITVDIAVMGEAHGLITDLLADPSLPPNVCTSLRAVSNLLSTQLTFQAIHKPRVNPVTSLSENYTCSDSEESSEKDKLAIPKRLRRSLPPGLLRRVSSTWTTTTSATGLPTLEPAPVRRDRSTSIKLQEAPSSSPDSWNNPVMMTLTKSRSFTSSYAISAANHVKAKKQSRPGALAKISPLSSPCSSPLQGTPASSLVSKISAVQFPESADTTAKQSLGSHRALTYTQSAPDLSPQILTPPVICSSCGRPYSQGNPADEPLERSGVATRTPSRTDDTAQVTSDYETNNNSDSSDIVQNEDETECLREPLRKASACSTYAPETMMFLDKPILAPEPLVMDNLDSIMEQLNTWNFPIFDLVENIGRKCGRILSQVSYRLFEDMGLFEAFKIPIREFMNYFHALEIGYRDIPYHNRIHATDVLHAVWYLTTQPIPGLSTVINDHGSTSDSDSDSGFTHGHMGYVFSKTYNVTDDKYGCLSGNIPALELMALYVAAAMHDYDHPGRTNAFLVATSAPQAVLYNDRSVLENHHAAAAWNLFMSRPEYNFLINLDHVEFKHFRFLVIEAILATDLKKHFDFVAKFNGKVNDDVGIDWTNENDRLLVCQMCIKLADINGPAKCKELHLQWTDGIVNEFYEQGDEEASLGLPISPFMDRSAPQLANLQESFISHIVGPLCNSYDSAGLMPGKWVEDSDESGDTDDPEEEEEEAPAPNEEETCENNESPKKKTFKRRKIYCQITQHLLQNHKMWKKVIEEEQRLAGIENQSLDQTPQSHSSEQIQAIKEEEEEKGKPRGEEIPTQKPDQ
T1 sequence (O00408 whole entry): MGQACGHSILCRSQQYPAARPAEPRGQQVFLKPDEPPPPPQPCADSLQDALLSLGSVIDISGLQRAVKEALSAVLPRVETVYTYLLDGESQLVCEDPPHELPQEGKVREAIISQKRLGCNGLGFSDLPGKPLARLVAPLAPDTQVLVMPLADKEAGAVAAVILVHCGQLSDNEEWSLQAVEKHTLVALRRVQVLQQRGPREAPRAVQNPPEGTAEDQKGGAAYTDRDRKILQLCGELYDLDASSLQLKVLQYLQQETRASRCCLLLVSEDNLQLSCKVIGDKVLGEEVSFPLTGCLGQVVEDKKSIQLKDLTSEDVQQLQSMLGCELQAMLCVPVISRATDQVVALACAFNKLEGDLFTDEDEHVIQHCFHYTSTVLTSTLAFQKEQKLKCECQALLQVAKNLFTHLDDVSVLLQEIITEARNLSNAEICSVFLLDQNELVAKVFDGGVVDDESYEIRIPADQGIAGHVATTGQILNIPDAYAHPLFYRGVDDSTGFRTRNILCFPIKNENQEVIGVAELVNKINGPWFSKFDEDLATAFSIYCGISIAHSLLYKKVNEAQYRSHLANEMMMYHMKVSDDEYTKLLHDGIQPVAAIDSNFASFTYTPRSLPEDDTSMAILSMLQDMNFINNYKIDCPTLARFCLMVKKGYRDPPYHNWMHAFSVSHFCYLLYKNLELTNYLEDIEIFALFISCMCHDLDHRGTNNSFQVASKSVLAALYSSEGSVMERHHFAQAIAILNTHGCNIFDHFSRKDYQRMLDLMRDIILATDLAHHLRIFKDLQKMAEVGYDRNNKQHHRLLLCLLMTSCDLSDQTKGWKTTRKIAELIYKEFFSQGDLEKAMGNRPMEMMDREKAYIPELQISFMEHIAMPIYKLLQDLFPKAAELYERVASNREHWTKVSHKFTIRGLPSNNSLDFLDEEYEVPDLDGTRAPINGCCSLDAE
T3 sequence (Q9Y233 267-1055): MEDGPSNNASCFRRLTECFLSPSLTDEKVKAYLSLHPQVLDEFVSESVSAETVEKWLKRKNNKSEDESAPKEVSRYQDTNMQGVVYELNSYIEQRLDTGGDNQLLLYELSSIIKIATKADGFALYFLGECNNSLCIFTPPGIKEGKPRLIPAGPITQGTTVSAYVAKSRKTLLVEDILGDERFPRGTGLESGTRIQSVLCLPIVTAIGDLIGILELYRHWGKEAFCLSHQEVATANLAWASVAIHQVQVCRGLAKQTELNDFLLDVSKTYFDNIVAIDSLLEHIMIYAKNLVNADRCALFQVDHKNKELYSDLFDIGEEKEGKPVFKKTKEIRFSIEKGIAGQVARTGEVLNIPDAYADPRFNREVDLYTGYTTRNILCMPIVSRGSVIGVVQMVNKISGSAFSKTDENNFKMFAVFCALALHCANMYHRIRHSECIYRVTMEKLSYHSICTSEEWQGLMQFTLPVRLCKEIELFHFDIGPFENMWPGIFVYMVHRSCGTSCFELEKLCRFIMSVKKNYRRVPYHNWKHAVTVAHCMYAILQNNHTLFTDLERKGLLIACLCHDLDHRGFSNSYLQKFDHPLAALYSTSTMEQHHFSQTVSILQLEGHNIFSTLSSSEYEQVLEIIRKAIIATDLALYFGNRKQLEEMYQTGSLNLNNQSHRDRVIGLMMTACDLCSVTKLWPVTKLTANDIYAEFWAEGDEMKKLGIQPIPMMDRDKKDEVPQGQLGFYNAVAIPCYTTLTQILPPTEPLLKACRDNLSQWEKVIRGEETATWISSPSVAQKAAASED

Row | SMILES | IC50 [1, 4] | Emax ([1]; human recombinant PDE2A) | Emax [1] | IC50 [1, 5] | IC50 [2] | Emax [2] | Emax [3, 6] | IC50 [3, 7] | melting point | Emax [3, 8] | IC50 [3, 9] | IC50 ([1]; hPDE2A pIC50) | IC50 [1, 10] | hPDE2A Emax [1] | hPDE2A Emax ([1]; human recombinant PDE2A) | hPDE3B Emax [2] | hPDE10A2 Emax ([3]; human clone (h), default)
1 | Cc1cc(C)nc(C(=O)N2CC[C@@H](C)[C@H](c3cc(C(F)F)nc4ncnn34)C2)c1 [Compound 137] | 28.2 nM | 100% | 100% | 28.2 nM | > 10000 nM | 35% | 84% | 1350 nM | 229.91 °C | – | – | – | – | – | – | – | –
2 | O=C(c1cn2ccsc2n1)N1[C@H]2CC[C@H](c3cc(C(F)F)nc4ncnn34)[C@@H]1CC2 [Compound 360] | – | – | 97% | 40.7 nM | 8510 nM | 50% | – | – | 264.8 °C | 55% | 6920 nM | – | – | – | – | – | –
3 | COc1cc(C(=O)N2CC[C@@H](C)[C@H](c3cc(C(F)F)nc4ncnn34)C2)ccc1C1CC1 [Compound 118] | 1.66 nM | 101% | 101% | 1.66 nM | 955 nM | 92% | 99% | 74.1 nM | 179.82 °C | – | – | – | – | – | – | – | –
4 | Cc1cc(C)cc(C(=O)N2CC[C@H](C)[C@@H](c3cc(C(F)F)nc4ncnn34)C2)c1 [Compound 214] | – | – | 9% | – | > 10000 nM | 9% | 30% | > 10000 nM | 203.97 °C | 30% | > 10000 nM | 6310 nM | 6310 nM | – | – | – | –
5 | COc1ccc(C(=O)N2[C@H]3CC[C@H](c4cc(C(F)F)nc5ncnn45)[C@@H]2CC3)cc1Cl [Compound 376] | – | – | 101% | 4.27 nM | 3390 nM | 79% | – | – | 175.71 °C | 97% | 309 nM | – | – | – | – | – | –
6 | O=C(c1ccc(F)c(Cl)c1)N1[C@H]2CC[C@H](c3cc(C(F)F)nc4ncnn34)[C@@H]1CC2 [Compound 377] | – | – | 99% | 17.8 nM | 9770 nM | 47% | – | – | 183.67 °C | 89% | 1290 nM | – | – | – | – | – | –
7 | Cc1cc(C(=O)N2CC[C@@H](C)[C@H](c3cc(C)nc4ncnn34)C2)cc(C2CC2)n1 [Compound 23] | – | – | 101% | – | 1050 nM | 90% | 100% | 7.08 nM | 169.13 °C | – | – | 0.468 nM | 0.468 nM | – | – | – | –
8 | Cc1nn(C)cc1C(=O)N1CCC[C@](C)(c2cc(C(F)F)nc3ncnn23)C1 (single isomer, unassigned) [Compound 207] | 7940 nM | 21% | 21% | 7940 nM | > 10000 nM | 2% | -5% | > 10000 nM | 173.79 °C | – | – | – | – | – | – | – | –
9 | CC(C)n1ccc2cc(C(=O)N3[C@H]4CC[C@H](c5cc(C(F)F)nc6ncnn56)[C@@H]3CC4)ccc21 [Compound 355] | – | – | 99% | 0.933 nM | 724 nM | 98% | – | – | 146.08 °C | 98% | 234 nM | – | – | – | – | – | –
10 | Cc1cc(C(=O)N2[C@H]3CC[C@H](c4cc(C(F)F)nc5ncnn45)[C@@H]2CC3)ccc1Cl [Compound 375] | – | – | 101% | 3.55 nM | 4470 nM | 73% | – | – | 171.51 °C | 94% | 813 nM | – | – | – | – | – | –
11 | Cc1cc(C(=O)N2CCC[C@](C)(c3cc(C(F)F)nc4ncnn34)C2)cc(C)n1 (single isomer, unassigned) [Compound 211] | > 10000 nM | 3% | 3% | > 10000 nM | > 10000 nM | 13% | 10% | > 10000 nM | 117.5 °C | – | – | – | – | – | – | – | –
12 | C[C@]1(c2cc(C(F)F)nc3ncnn23)CCCN(C(=O)c2ccc3occc3c2)C1 (single isomer, unassigned) [Compound 209] | 724 nM | 57% | 57% | 724 nM | > 10000 nM | 25% | 7% | > 10000 nM | 145.19 °C | – | – | – | – | – | – | – | –
13 | Cc1ccc(C(=O)N2CCC[C@](C)(c3cc(C(F)F)nc4ncnn34)C2)c(C)n1 (single isomer, unassigned) [Compound 210] | 617 nM | 56% | 56% | 617 nM | > 10000 nM | 5% | 16% | > 10000 nM | 195.81 °C | – | – | – | – | – | – | – | –
14 | C[C@@H]1CCN(C(=O)c2ccc3ncccc3c2)C[C@H]1c1cc(C(F)F)nc2ncnn12 [Compound 322] | – | – | 100% | 0.501 nM | 479 nM | 95% | – | – | 180.27 °C | 99% | 18.6 nM | – | – | – | – | – | –
15 | C[C@@H]1CCN(C(=O)c2ccc3c(ccn3C)c2)C[C@H]1c1cc(C(F)F)nc2ncnn12 [Compound 327] | – | – | 101% | 0.417 nM | 77.6 nM | 99% | – | – | 194.86 °C | 100% | 20.4 nM | – | – | – | – | – | –
16 | C[C@@H]1CCN(C(=O)c2ccc3ccccc3c2)C[C@H]1c1cc(C(F)F)nc2ncnn12 [Compound 331] | – | – | 98% | 0.479 nM | 50.1 nM | 99% | – | – | 193.87 °C | 100% | 14.5 nM | – | – | – | – | – | –
17 | Cc1cc(C(=O)N2[C@H]3CC[C@H](c4cc(C(F)F)nc5ncnn45)[C@@H]2CC3)cc(C)n1 (racemic) [Compound 31] | 2.51 nM | – | – | 2.51 nM | – | – | – | 1120 nM | 190.16 °C | – | – | – | – | 100 | 100 | 8 | 84
18 | Cc1csc(C(=O)N2CC[C@H](C)[C@@H](c3cc(C(F)F)nc4ncnn34)C2)c1 [Compound 213] | 2340 nM | 28% | 28% | 2340 nM | > 10000 nM | 11% | 23% | > 10000 nM | 169.7 °C | – | – | – | – | – | – | – | –
19 | O=C(c1cc(Cl)cc(Cl)c1)N1[C@H]2CC[C@H](c3cc(C(F)F)nc4ncnn34)[C@@H]1CC2 [Compound 333] | – | – | 99% | 8.13 nM | 6920 nM | 63% | – | – | 291.55 °C | 93% | 708 nM | – | – | – | – | – | –
20 | C[C@@H]1CCN(C(=O)c2cnc3ccccc3c2)C[C@H]1c1cc(C(F)F)nc2ncnn12 [Compound 324] | – | – | 100% | 0.851 nM | 263 nM | 97% | – | – | 204.06 °C | 100% | 66.1 nM | – | – | – | – | – | –
21 | C[C@@H]1CCN(C(=O)c2cnc3c(F)cccc3c2)C[C@H]1c1cc(C(F)F)nc2ncnn12 [Compound 325] | – | – | 100% | 1.15 nM | 309 nM | 98% | – | – | 226.36 °C | 98% | 64.6 nM | – | – | – | – | – | –
22 | Cc1cc(C)cc(C(=O)N2CCC[C@](C)(c3cc(C(F)F)nc4ncnn34)C2)c1 (single isomer, unassigned) [Compound 206] | 1660 nM | 39% | 39% | 1660 nM | > 10000 nM | -1% | 16% | > 10000 nM | 145.73 °C | – | – | – | – | – | – | – | –
23 | Cc1cc([C@@H]2CN(C(=O)c3cc(Cl)ncc3Cl)CC[C@H]2C)n2ncnc2n1 [Compound 271] | – | – | 99% | 2.95 nM | 7410 nM | 61% | 95% | 162 nM | 247.4 °C | 95% | 162 nM | – | – | – | – | – | –

— patent publication US10947242B2, “[1,2,4]triazolo[1,5and#8208;A]pyrimidine compounds as PDE2 inhibitors” (Janssen Pharmaceutica NV, priority 2016, dated 2021)
